From patent publication US12594276B2, “Inhibitors of human immunodeficiency virus replication” (ViiV Healthcare UK (No.5) Limited, priority 2024, dated 2026)

Columns and labels:
[1] = test system: recombinant NL4-3 virus (nef section replaced with Renilla luciferase gene) in MT-2 cells; experiment: HIV cell culture assay (antiviral activity, luciferase readout); format: cell-based; conditions: Renilla, NL43, MT-2 cells infected for 4-5 days with recombinant NL4-3 Renilla luciferase virus
Summary of the method: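 Read-out: Renilla luciferase (live-cell substrate) in infected MT-2 cells after 4-5 d with serial compound dilutions. Virus from 293T transfection of the proviral clone, titered by luciferase in MT-2. EC50 via median effect equation fit.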

[2] = Compound cytotoxicity, XTT-based colorimetric assay; format: cell-based; conditions: human; uninfected MT2 cells, day 4, XTT; read-out: CC50
Summary of the method: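 Uninfected MT2 cells, antiviral-assay protocol without virus; XTT colorimetric readout day 4; CC50 reported.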

SMILES | EC50 [1] [nM] | CC50 at 4 days [2] [nM]
COCCCn1nc(NS(C)(=O)=O)c2c(Cl)ccc(-n3c([C@H](Cc4cc(F)cc(F)c4)NC(=O)Cn4nc(C(F)F)c5c4C(F)(F)[C@@H]4C[C@H]54)nc4nc(C5CCC(F)(F)CC5)cc(NCC5(C)CCOCC5)c4c3=O)c21 (atropisomer, axis not shown; (P)) [Example 485, N-[(1S)-1-[(3P)-3-[4-chloro-3-methanesulfonamido-1-(3-methoxypropyl)-1H-indazol-7-yl]-7-(4,4-difluorocyclohexyl)-5-{[(4-methyloxan-4-yl)methyl]amino}-4-oxo-3H,4H-pyrido[2,3-d]pyrimidin-2-yl]-2-(3,5-difluorophenyl)ethyl]-2-[(2S,4R)-9-(difluoromethyl)-5,5-difluoro-7,8-diazatricyclo[4.3.0.0^2,^4]nona-1(6),8-dien-7-yl]acetamide] | 0.016 | > 20
COCCCn1nc(NS(C)(=O)=O)c2c(Cl)ccc(-n3c([C@H](Cc4cc(F)cc(F)c4)NC(=O)Cn4nc(C(F)F)c5c4C(F)(F)[C@@H]4C[C@H]54)nc4nc(C5CCC(F)(F)CC5)cc(CN5C[C@H](F)C[C@H](F)C5)c4c3=O)c21 (atropisomer, axis not shown; (P)) [Example 488, N-[(1S)-1-[(3P)-3-[4-chloro-3-methanesulfonamido-1-(3-methoxypropyl)-1H-indazol-7-yl]-7-(4,4-difluorocyclohexyl)-5-{[(3R,5S)-3,5-difluoropiperidin-1-yl]methyl}-4-oxo-3H,4H-pyrido[2,3-d]pyrimidin-2-yl]-2-(3,5-difluorophenyl)ethyl]-2-[(2S,4R)-9-(difluoromethyl)-5,5-difluoro-7,8-diazatricyclo[4.3.0.0^2,^4]nona-1(6),8-dien-7-yl]acetamide] | 0.009 | > 20
COCCCn1nc(NS(C)(=O)=O)c2c(Cl)ccc(-n3c([C@H](Cc4cc(F)cc(F)c4)NC(=O)Cn4nc(C(F)F)c5c4C(F)(F)[C@@H]4C[C@H]54)nc4nc(C5CCC(F)(F)CC5)cc(CN5CCC(F)(F)CC5)c4c3=O)c21 (atropisomer, axis not shown; (P)) [Example 489, N-[(1S)-1-[(3P)-3-[4-chloro-3-methanesulfonamido-1-(3-methoxypropyl)-1H-indazol-7-yl]-7-(4,4-difluorocyclohexyl)-5-[(4,4-difluoropiperidin-1-yl)methyl]-4-oxo-3H,4H-pyrido[2,3-d]pyrimidin-2-yl]-2-(3,5-difluorophenyl)ethyl]-2-[(2S,4R)-9-(difluoromethyl)-5,5-difluoro-7,8-diazatricyclo[4.3.0.0^2,4]nona-1(6),8-dien-7-yl]acetamide] | 0.018 | > 20
CS(=O)(=O)Nc1nn(CCN2C[C@H](F)C[C@H](F)C2)c2c(-n3c([C@H](Cc4cc(F)cc(F)c4)NC(=O)Cn4nc(C(F)F)c5c4C(F)(F)[C@@H]4C[C@H]54)nc4nc(C5CCC(F)(F)CC5)cc(NCCN5CCOCC5)c4c3=O)ccc(Cl)c12 (atropisomer, axis not shown; (P)) [Example 491, N-[(1S)-1-[(3P)-3-(4-chloro-1-{2-[(3R,5S)-3,5-difluoropiperidin-1-yl]ethyl}-3-methanesulfonamido-1H-indazol-7-yl)-7-(4,4-difluorocyclohexyl)-5-{[2-(morpholin-4-yl)ethyl]amino}-4-oxo-3H,4H-pyrido[2,3-d]pyrimidin-2-yl]-2-(3,5-difluorophenyl)ethyl]-2-[(2S,4R)-9-(difluoromethyl)-5,5-difluoro-7,8-diazatricyclo[4.3.0.0^2,^4]nona-1(6),8-dien-7-yl]acetamide] | 0.009 | > 20
COCCCn1nc(NS(C)(=O)=O)c2c(Cl)ccc(-n3c([C@H](Cc4cc(F)cc(F)c4)NC(=O)Cn4nc(C(F)F)c5c4C(F)(F)[C@@H]4C[C@H]54)nc4nc(C5CCC(F)(F)CC5)cc(NCCN5CCC(F)(F)CC5)c4c3=O)c21 (atropisomer, axis not shown; (P)) [Example 498, N-[(1S)-1-[(3P)-3-[4-chloro-3-methanesulfonamido-1-(3-methoxypropyl)-1H-indazol-7-yl]-7-(4,4-difluorocyclohexyl)-5-{[2-(4,4-difluoropiperidin-1-yl)ethyl]amino}-4-oxo-3H,4H-pyrido[2,3-d]pyrimidin-2-yl]-2-(3,5-difluorophenyl)ethyl]-2-[(2S,4R)-9-(difluoromethyl)-5,5-difluoro-7,8-diazatricyclo[4.3.0.0^2,^4]nona-1(6),8-dien-7-yl]acetamide] | 0.018 | > 20
COCCCn1nc(NS(C)(=O)=O)c2c(Cl)ccc(-n3c([C@H](Cc4cc(F)cc(F)c4)NC(=O)Cn4nc(C(F)F)c5c4C(F)(F)[C@@H]4C[C@H]54)nc4nc(C5CCC(F)(F)CC5)cc(NCCN5CCC5)c4c3=O)c21 (atropisomer, axis not shown; (P)) [Example 500, N-[(1S)-1-[(3P)-5-{[2-(azetidin-1-yl)ethyl]amino}-3-[4-chloro-3-methanesulfonamido-1-(3-methoxypropyl)-1H-indazol-7-yl]-7-(4,4-difluorocyclohexyl)-4-oxo-3H,4H-pyrido[2,3-d]pyrimidin-2-yl]-2-(3,5-difluorophenyl)ethyl]-2-[(2S,4R)-9-(difluoromethyl)-5,5-difluoro-7,8-diazatricyclo[4.3.0.0^2,^4]nona-1(6),8-dien-7-yl]acetamide] | 0.049 | > 20
Cc1cc(C2(F)CCC(F)(F)CC2)nc2nc([C@H](Cc3cc(F)cc(F)c3)NC(=O)Cn3nc(C(F)F)c4c3C(F)(F)[C@@H]3C[C@H]43)n(-c3ccc(Cl)c4c(NS(C)(=O)=O)nn(CCN5CC(C)(C)OC(C)(C)C5)c34)c(=O)c12 (atropisomer, axis not shown; (P)) [Example 501, N-[(1S)-1-[(3P)-3-{4-chloro-3-methanesulfonamido-1-[2-(2,2,6,6-tetramethylmorpholin-4-yl)ethyl]-1H-indazol-7-yl}-5-methyl-4-oxo-7-(1,4,4-trifluorocyclohexyl)-3H,4H-pyrido[2,3-d]pyrimidin-2-yl]-2-(3,5-difluorophenyl)ethyl]-2-[(2S,4R)-9-(difluoromethyl)-5,5-difluoro-7,8-diazatricyclo[4.3.0.0^2,^4]nona-1(6),8-dien-7-yl]acetamide] | 0.016 | > 20
Cc1cc(C2(F)CCC(F)(F)CC2)nc2nc([C@H](Cc3cc(F)cc(F)c3)NC(=O)Cn3nc(C(F)F)c4c3C(F)(F)[C@@H]3C[C@H]43)n(-c3ccc(Cl)c4c(NS(C)(=O)=O)nn(CCN5C[C@@H](C)O[C@@H](C)C5)c34)c(=O)c12 (atropisomer, axis not shown; (P)) [Example 502, N-[(1S)-1-[(3P)-3-(4-chloro-1-{2-[(2R,6S)-2,6-dimethylmorpholin-4-yl]ethyl}-3-methanesulfonamido-1H-indazol-7-yl)-5-methyl-4-oxo-7-(1,4,4-trifluorocyclohexyl)-3H,4H-pyrido[2,3-d]pyrimidin-2-yl]-2-(3,5-difluorophenyl)ethyl]-2-[(2S,4R)-9-(difluoromethyl)-5,5-difluoro-7,8-diazatricyclo[4.3.0.0^2,^4]nona-1(6),8-dien-7-yl]acetamide] | 0.019 | > 20
